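Assay format: 96-well plates, 48-hour exposure. GI50: concentration for 50% inhibition of growth. The concentration for full growth arrest is given as TGI.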
How the values were obtained:
Experiment in all cases: inhibition of tumour cell growth, NCI panel, 48 h
[1] = system: SF-268 CNS
[2] = system: ACHN renal
[3] = system: NCI-H460 lung
[4] = system: NCI-H522 lung
[5] = system: KM12 colon
[6] = system: UACC-62 melanoma
[7] = system: PC-3 prostate
[8] = system: HOP-62 NSCLC
[9] = system: HCT-15 colon
[10] = system: COLO 205 colon

Compound	GI50 [1]	TGI [1]	GI50 [2]	TGI [2]	GI50 [3]	TGI [3]	GI50 [4]	TGI [4]	GI50 [5]	TGI [5]	GI50 [6]	TGI [6]	GI50 [7]	TGI [7]	GI50 [8]	TGI [8]	GI50 [9]	TGI [9]	GI50 [10]	TGI [10]
c1ccc(CNc2nc(Nc3ccc(-c4nc5ccccc5[nH]4)cc3)c3cn[nH]c3n2)cc1	2.37 µM	7.1 µM	2.29 µM	6.5 µM	2.18 µM	5.76 µM	2.24 µM	5.68 µM	1.9 µM	4.87 µM	2.13 µM	4.92 µM	1.78 µM	6.36 µM	2.17 µM	5.48 µM	1.89 µM	7.65 µM	1.78 µM	3.72 µM
CC1(C)CCC(CN2CCN(c3ccc(C(=O)NS(=O)(=O)c4ccc(NCC5CCOCC5)c([N+](=O)[O-])c4)c(Oc4cnc5[nH]ccc5c4)c3)CC2)=C(c2ccc(Cl)cc2)C1	3.58 µM	17.8 µM	2.93 µM	10.2 µM	2.64 µM	8.86 µM	2.46 µM	7.23 µM	2.98 µM	9.86 µM	0.782 µM	2.16 µM	1.93 µM	5.54 µM	4.1 µM	15.8 µM	3.1 µM	11.2 µM	1.95 µM	3.7 µM
CCN(CC)c1ccc(/C=C/C2=[N+](C)c3ccccc3C2(C)C)cc1	0.627 µM	33.2 µM	1.48 µM	14.6 µM	0.312 µM	15.8 µM	0.274 µM	21.8 µM	0.28 µM	1.83 µM	0.435 µM	14.9 µM	0.167 µM	31.7 µM	0.697 µM	16.3 µM	3.34 µM	> 49.4 µM	0.161 µM	0.392 µM
CCOC(=O)/C(=C/c1c(-c2ccccc2)[nH]c2ccccc12)C(=O)c1ccc(Cl)cc1	6.06 µM	> 100 µM	3.62 µM	> 100 µM	3.03 µM	10.3 µM	5.86 µM	> 100 µM	3.29 µM	> 100 µM	3.27 µM	37.1 µM	3.08 µM	> 100 µM	4.59 µM	> 100 µM	4.06 µM	> 100 µM	1.98 µM	4.36 µM
COC(=O)C1(C)CCc2c(ccc3ccccc23)C1=O (stereo not given)	–	> 100 µM	–	> 100 µM	–	> 100 µM	–	57.3 µM	–	70.4 µM	–	98.1 µM	–	> 100 µM	–	> 100 µM	–	> 100 µM	–	42.2 µM
OCCC#Cc1ccccc1C#Cc1ccccc1	16.5 µM	33.9 µM	17.2 µM	36.4 µM	21.5 µM	50.7 µM	32.1 µM	> 100 µM	7.18 µM	17.2 µM	11.9 µM	24.4 µM	13.7 µM	35.5 µM	18.7 µM	33.9 µM	11.6 µM	24.8 µM	19.4 µM	38 µM
COc1ccc(C(NCCNC(c2ccc(OC)c(OC)c2)c2cc3c(cc2O)OCO3)c2cc3c(cc2O)OCO3)cc1OC (stereo not given)	–	3.24 µM	–	7.95 µM	–	18.3 µM	–	3.52 µM	–	7.11 µM	–	7.52 µM	–	6.64 µM	–	30.6 µM	–	5.21 µM	–	> 26.1 µM
CC1(C)OCC(C2OC(On3nnc4ccc(Cl)cc43)C3OC(C)(C)OC23)O1 (stereo not given)	–	> 100 µM	–	> 100 µM	–	> 100 µM	–	> 100 µM	–	> 100 µM	–	> 100 µM	–	> 100 µM	–	> 100 µM	–	> 100 µM	–	> 100 µM
Nc1nccc(C#Cc2cncnc2Nc2ccc(OCc3cccc(F)c3)c(Cl)c2)n1	4.5 µM	9.28 µM	4.2 µM	10.6 µM	5.13 µM	10.3 µM	2.23 µM	5.88 µM	4.52 µM	8.2 µM	4.09 µM	7.68 µM	4.5 µM	9.63 µM	4.93 µM	9.17 µM	3.69 µM	11.4 µM	3.96 µM	8.6 µM
COc1cc2c(cc1OCCCN1CCN(CCCOc3cc4c(cc3OC)C(=O)C3CCC[C@H]3C=N4)CC1)N=C[C@@H]1CCCC1C2=O (stereo not given in full)	3 µM	> 100 µM	55.7 µM	> 100 µM	4.45 µM	> 69.9 µM	0.446 µM	> 29.6 µM	22.7 µM	> 100 µM	6.49 µM	15.2 µM	2.99 µM	> 77.1 µM	4.78 µM	> 100 µM	53.9 µM	> 100 µM	9.29 µM	> 75.4 µM
O=S(=O)(Nc1ccc2ccc3cccc4ccc1c2c34)c1ccccc1	–	> 100 µM	–	> 100 µM	–	> 100 µM	–	> 100 µM	–	> 100 µM	–	> 100 µM	–	> 100 µM	–	> 100 µM	–	> 100 µM	–	> 100 µM
O=C1c2cccnc2-c2nc(-c3ccccc3)cc3c2c1nc1ccccc13	3.93 µM	18.8 µM	1.09 µM	8 µM	0.844 µM	3.74 µM	0.714 µM	3.06 µM	4.61 µM	16.1 µM	3.74 µM	9.01 µM	3.42 µM	73.2 µM	14.5 µM	28.3 µM	1.13 µM	5.02 µM	6 µM	19 µM
CC[C@]12C=CCN3CC[C@]4(C(=C(C(=O)OC)C1)Nc1ccccc14)[C@@H]32	4.6 µM	19.3 µM	2.07 µM	4.54 µM	4.11 µM	16.3 µM	3.24 µM	14.1 µM	3.65 µM	14.5 µM	2.89 µM	12 µM	5.36 µM	22.8 µM	9.78 µM	28.4 µM	2.68 µM	10.4 µM	5.62 µM	20 µM
c1ccc(COc2ccc(Nc3ncnc4ccc(-c5ccco5)cc34)cc2)cc1	8.29 µM	> 25 µM	6.75 µM	> 25 µM	2.84 µM	> 25 µM	4.84 µM	15.1 µM	6.09 µM	14.7 µM	5.75 µM	14.3 µM	8.47 µM	> 23.5 µM	5.85 µM	16 µM	4.3 µM	12.3 µM	7.14 µM	17.7 µM
COc1ccc2c(c1)C(=O)/C(=C/c1ccc(OCC(=O)c3ccc(Cl)cc3)cc1)O2	18.4 µM	48.6 µM	15.9 µM	30.5 µM	29.7 µM	> 100 µM	3.77 µM	15.7 µM	15.6 µM	30.1 µM	17.5 µM	> 100 µM	14.7 µM	69.1 µM	43.8 µM	> 100 µM	12.6 µM	26.3 µM	4.64 µM	18 µM
Cn1cc(-c2csc(-c3cn(C)c4ncccc34)n2)c2ccccc21	1.12 µM	37.4 µM	0.899 µM	16.6 µM	0.336 µM	13.5 µM	0.0889 µM	1.16 µM	0.242 µM	> 76.7 µM	0.325 µM	44.3 µM	0.397 µM	> 100 µM	0.622 µM	19.3 µM	0.23 µM	> 100 µM	0.229 µM	1.05 µM
CC(=O)C(CN1CCOCC1)C(c1ccccc1)c1c(O)c2ccccc2oc1=O (stereo not given)	–	> 100 µM	–	> 100 µM	–	> 100 µM	–	> 100 µM	–	> 100 µM	–	> 100 µM	–	> 100 µM	–	> 100 µM	–	> 100 µM	–	> 100 µM
Cn1cccc1C1CC(=O)N(CCC[Se]C#N)C1=O (stereo not given)	1.92 µM	3.92 µM	2.11 µM	4.4 µM	2.05 µM	5.93 µM	1.87 µM	4.04 µM	2.11 µM	5.36 µM	1.87 µM	3.91 µM	2.19 µM	5.63 µM	1.88 µM	3.77 µM	2.35 µM	6.43 µM	2.1 µM	4.88 µM
C#CCSc1nnnn1-c1ccc(Br)c(C)c1	24.6 µM	> 100 µM	33.1 µM	> 100 µM	31.5 µM	> 100 µM	19.1 µM	79.4 µM	35 µM	> 100 µM	18.3 µM	91.2 µM	34.7 µM	> 100 µM	64.3 µM	> 100 µM	29 µM	> 100 µM	27.2 µM	84.3 µM
O=C(/C=C/c1cccnc1)/C=C/c1cccnc1	2.73 µM	7.77 µM	2.19 µM	5.48 µM	2.5 µM	7.29 µM	1.77 µM	4.69 µM	0.428 µM	1.58 µM	1.91 µM	5.36 µM	0.558 µM	3.01 µM	6.27 µM	16.4 µM	0.523 µM	1.98 µM	1.35 µM	2.77 µM
COc1cccc(C2C3=C(COC3=O)N(CCO)c3cc4c(cc32)CCC4)c1 (stereo not given)	0.0731 µM	5.93 µM	0.0622 µM	> 50 µM	0.0426 µM	0.319 µM	0.00644 µM	0.0165 µM	0.0219 µM	0.443 µM	34.2 µM	> 50 µM	0.0577 µM	> 50 µM	0.147 µM	> 16 µM	0.122 µM	> 22.2 µM	0.0584 µM	0.198 µM
O=C1/C(=C\c2ccccc2)CN(C(=O)c2ccccc2F)C/C1=C\c1ccccc1	2.8 µM	8.85 µM	1.85 µM	3.46 µM	2.67 µM	7.35 µM	1.78 µM	3.47 µM	1.37 µM	3.11 µM	1.68 µM	3.41 µM	2.34 µM	7.22 µM	2.53 µM	6.57 µM	1.88 µM	4.11 µM	2.05 µM	4.03 µM
COc1cc2nc(-c3ccc(Cl)cc3)cc(OCCCN3CCC(O)CC3)c2cc1OC	3.36 µM	19.6 µM	2.43 µM	10.4 µM	0.955 µM	14 µM	2.19 µM	5.77 µM	3.13 µM	13.6 µM	1.9 µM	4.04 µM	2.02 µM	12.7 µM	1.98 µM	10.4 µM	0.763 µM	12.5 µM	0.532 µM	4.11 µM
COC(=O)Oc1nn(C(=O)OC)c(=O)c2ccccc12 (tested in a mixture with another compound)	–	> 100 µM	–	> 100 µM	–	> 100 µM	–	> 100 µM	–	> 100 µM	–	> 100 µM	–	> 100 µM	–	> 100 µM	–	> 100 µM	–	> 100 µM
CC1OC(OC2C(OC3CCC4(C)C(CCC5(C)C4CC=C4C6CC(C)(C)CCC6(CO)C(O)CC45C)C3(C)C)OC(C(=O)O)C(OC3OC(COC4OC(CO)C(O)C(O)C4O)C(O)C(O)C3O)C2O)C(O)C(O)C1O (stereo not given)	13.1 µM	27.1 µM	4.81 µM	16.8 µM	12.1 µM	24.5 µM	1.43 µM	2.95 µM	3.25 µM	14.1 µM	9.64 µM	20.6 µM	1.56 µM	3.92 µM	14.8 µM	30.9 µM	8.27 µM	18.8 µM	1.75 µM	4.39 µM
COc1cc(-c2cn(-c3ccc(Cl)cc3)c(=O)n2-c2ccccc2)cc(OC)c1OC	> 68.9 µM	> 100 µM	34.8 µM	> 100 µM	> 80.9 µM	> 100 µM	45.1 µM	> 100 µM	> 69.9 µM	> 100 µM	32.5 µM	> 100 µM	69.9 µM	> 100 µM	> 85.3 µM	> 100 µM	> 100 µM	> 100 µM	51 µM	> 100 µM

From PubChem BioAssay (NCI)
